Laboratory results published in ChEMBL document CHEMBL3217742, “Mapping of a lipoglycopeptide antibiotic binding site on Staphylococcus aureus penicillin-binding protein 2 using a vancomycin photoaffinity analogue” (2012).
≈ marks a conversion by molar mass, not a printed value. Calls of active or inactive are those of the source. The calls are words filed in the database; no cut-off is given here.

How the values were obtained:
Staphylococcus aureus [1] = experiment: Antibacterial activity against vancomycin-susceptible Staphylococcus aureus RN4220; type: functional
Enterococcus faecium [2] = experiment: Antibacterial activity against vancomycin-susceptible Enterococcus faecium SR16972; type: functional
Staphylococcus aureus [3] = experiment: Antibacterial activity against vancomycin A-resistant Staphylococcus aureus VRS2; type: functional
Enterococcus faecium [4] = experiment: Antibacterial activity against vancomycin A-resistant Enterococcus faecium SR7940; type: functional
Enterococcus faecium [5] = experiment: Antibacterial activity against vancomycin B-resistant Enterococcus faecium SR23598; type: functional
[6] = test system: Staphylococcus aureus subsp. aureus RN4220; experiment: Displacement of photoaffinity probe 1 from penicillin-binding protein-2 in Staphylococcus aureus RN4220 cell membrane incubated for 5 mins prior to photoaffinity probe 1 challenge for 5 mins measured after UV irradiation by SDS-PAGE based western blot analysis
[7] = test system: Staphylococcus aureus subsp. aureus RN4220; experiment: Binding affinity to penicillin-binding protein-2 in Staphylococcus aureus RN4220 cell membrane at 50 uM incubated for 20 mins measured after UV irradiation by SDS-PAGE based immunostaining
[8] = test system: Staphylococcus aureus subsp. aureus RN4220; experiment: Binding affinity to penicillin-binding protein-2 transpeptidase domain in Staphylococcus aureus RN4220 cell membrane at 1 uM incubated for 1 hr measured after UV irradiation by pull-down assay
[9] = test system: Staphylococcus aureus subsp. aureus RN4220; experiment: Binding affinity to Staphylococcus aureus RN4220 recombinant C-terminal His6-tagged PBP2 expressed in Escherichia coli cells at 2 uM incubated for 2 hrs measured after UV irradiation by LC-MALDI-MS/MS analysis

Structure (SMILES)	MIC (Staphylococcus aureus [1]) [µg/mL]	MIC (Enterococcus faecium [2]) [µg/mL]	MIC (Staphylococcus aureus [3]) [µg/mL]	MIC (Enterococcus faecium [4]) [µg/mL]	MIC (Enterococcus faecium [5]) [µg/mL]	inhibition [6]	Activity [7]	Activity [8]	Activity [9]
CN[C@H](CC(C)C)C(=O)N[C@H]1C(=O)N[C@@H](CC(N)=O)C(=O)N[C@H]2C(=O)N[C@H]3C(=O)N[C@H](C(=O)N[C@H](C(=O)O)c4cc(O)cc(O)c4-c4cc3ccc4O)[C@H](O)c3ccc(c(Cl)c3)Oc3cc2cc(c3O[C@@H]2O[C@H](CO)[C@@H](O)[C@H](O)[C@H]2O[C@H]2C[C@](C)(NCc3cccc(NC(=O)c4ccc(C)c(OCc5ccccc5)c4[N+](=O)[O-])c3)[C@H](O)[C@H](C)O2)Oc2ccc(cc2Cl)[C@H]1O	0.125 (≈ 0.0685 µM)	0.25 (≈ 0.137 µM)	0.5 (≈ 0.274 µM)	1 (≈ 0.548 µM)	0.25 (≈ 0.137 µM)	Dose-dependent effect	–	–	–
CN[C@H](CC(C)C)C(=O)N[C@H]1C(=O)N[C@@H](CC(N)=O)C(=O)N[C@H]2C(=O)N[C@H]3C(=O)N[C@H](C(=O)N[C@H](C(=O)NCCCOCCOCCOCCCNC(=O)CCCC[C@@H]4SC[C@@H]5NC(=O)N[C@@H]54)c4cc(O)cc(O)c4-c4cc3ccc4O)[C@H](O)c3ccc(c(Cl)c3)Oc3cc2cc(c3O[C@@H]2O[C@H](CO)[C@@H](O)[C@H](O)[C@H]2O[C@H]2C[C@](C)(NCc3ccc(NC(=O)c4ccc(C5(C(F)(F)F)N=N5)cc4)nc3)[C@H](O)[C@H](C)O2)Oc2ccc(cc2Cl)[C@H]1O	1 (≈ 0.455 µM)	0.5 (≈ 0.228 µM)	2 (≈ 0.911 µM)	2 (≈ 0.911 µM)	0.5 (≈ 0.228 µM)	–	Active	Active	Active
CN[C@H](CC(C)C)C(=O)N[C@H]1C(=O)N[C@@H](CC(N)=O)C(=O)N[C@H]2C(=O)N[C@H]3C(=O)N[C@H](C(=O)N[C@H](C(=O)O)c4cc(O)cc(O)c4-c4cc3ccc4O)[C@H](O)c3ccc(c(Cl)c3)Oc3cc2cc(c3O[C@@H]2O[C@H](CO)[C@@H](O)[C@H](O)[C@H]2O[C@H]2C[C@](C)(N)[C@H](O)[C@H](C)O2)Oc2ccc(cc2Cl)[C@H]1O [VANCOMYCIN]	–	–	> 64	> 64	> 64	–	–	–	–
